Read-outs that look alike come from different tables or passages of the source.
Columns and labels:
Menin-MLL = molecular target: T1, Menin-MLL (Homo sapiens, UniProt O00255); test: Inhibitory activity against Menin-MLL binding (fluorescence polarization); details: 150 nM His-Menin, 15 nM FITC-MLL, 25°C for 60 min
T1 construct: His-Menin (M1-L615 end); purchased BIORTUS BP9210
T1 sequence (O00255 1-615 isoform O00255-1): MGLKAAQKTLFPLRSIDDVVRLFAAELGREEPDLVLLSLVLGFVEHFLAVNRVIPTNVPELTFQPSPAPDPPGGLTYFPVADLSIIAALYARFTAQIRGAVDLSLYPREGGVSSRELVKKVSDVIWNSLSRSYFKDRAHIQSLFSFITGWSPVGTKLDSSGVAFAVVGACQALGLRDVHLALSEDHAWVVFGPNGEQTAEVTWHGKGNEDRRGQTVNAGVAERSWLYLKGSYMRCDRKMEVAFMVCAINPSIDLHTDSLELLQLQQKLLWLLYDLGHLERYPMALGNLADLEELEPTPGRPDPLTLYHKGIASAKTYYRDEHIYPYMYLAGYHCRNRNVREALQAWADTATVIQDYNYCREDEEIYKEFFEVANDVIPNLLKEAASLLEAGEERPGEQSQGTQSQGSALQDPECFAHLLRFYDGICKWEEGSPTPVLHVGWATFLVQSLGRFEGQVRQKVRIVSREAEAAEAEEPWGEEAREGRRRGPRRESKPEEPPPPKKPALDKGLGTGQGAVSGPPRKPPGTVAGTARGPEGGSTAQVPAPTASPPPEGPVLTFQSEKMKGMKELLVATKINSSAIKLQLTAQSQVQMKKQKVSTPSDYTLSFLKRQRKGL
How it was run: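 His-Menin (M1-L615, 150 nM) preincubated with compound 15 min at 25 °C in HEPES pH 7.5, 50 mM NaCl, 1 mM DTT, 0.01% BSA, then 15 nM FITC-MLL4-43 peptide added for 60 min at 25 °C. Fluorescence polarization read; IC50 from 4-parameter logistic fit, duplicates.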

[1] = tested on: MOLM-13 (carrying MLL-AF9); test: Inhibition of proliferation of human tumor cells (Alamar Blue, 7 days), MOLM-13; assay type: cell-based; details: Homo sapiens, MOLM-13 cells (carrying MLL-AF9), method calls the value GI50
How it was run: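 Cells seeded at 4,000/well (MV-4-11, MOLM-13) or 3,000/well (KG-1a) in serum-supplemented IMDM or RPMI-1640, 37°C, 5% CO2, then exposed to 3- or 4-fold compound dilutions in duplicate for 7 days. Alamar Blue fluorescence read; GI50 derived against Day 7 0.1% DMSO (high) and Day 0 (low) controls.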

[2] = Menin-MLL IC50, fluorescence polarization
[3] = fluorescence polarization, read-out: Menin-MLL IC50

Structure (SMILES)	IC50 (Menin-MLL; [3]) [nM]	IC50 ([1]; 168 h) [nM]	IC50 (Menin-MLL; [2]) [nM]	IC50 ([1]; MOLM-13, 168 h) [nM]
CCN(C(=O)c1cc(F)ccc1-c1cc(C2CN([C@H](CCCN3CCN(C4(CO)COC4)CC3)C(C)C)C2)cn2c(C)ncc12)C(C)C [Example 474, N-ethyl-5-fluoro-2-(6-{1-[(3R)-6-{4-[3-(hydroxymethyl)oxacyclobutan-3-yl]piperazin-1-yl}-2-methylhexan-3-yl]azacyclobutan-3yl}-3-methylimidazo[1,5-a]pyridin-8-yl)-N-(isopropyl)benzamide]			0.9	11
CCN(C(=O)c1cc(F)ccc1-c1cc(C2CN([C@@H](CN3CCN(C)CC3)C(C)C)C2)cn2c(C)ncc12)C(C)C [Example 403-2, N-ethyl-5-fluoro-2-(3-methyl-6-{1-[(2R)-3-methyl-1-(4-methylpiperazin-1-yl)butan-2-yl]azacyclobutan-3-yl}imidazo[1,5-a]pyridin-8-yl)-N-(isopropyl)benzamide]	10	38		
CCN(C(=O)c1cc(F)ccc1-c1cc(C2CN([C@H](CCCN3C4CCC3CN(C(C)=O)C4)C(C)C)C2)cn2c(C)ncc12)C(C)C [Example 378, 2-(6-{1-[(3R)-6-{3-acetyl-3,8-diazabicyclo[3.2.1]oct-8-yl}-2-methylhexan-3-yl]azacyclobutan-3-yl}-3-methylimidazo[1,5-a]pyridin-8-yl)-N-ethyl-5-fluoro-N-(isopropyl)benzamide]	2.8	5.8		
Cc1ncc2c(-c3ccc(F)cc3C(=O)N3CCOC[C@H]3C)cc(C3CN([C@H](CCCN4CCN(CC(F)(F)F)CC4)C(C)C)C3)cn12 [Example 385]	4.7	8.1		
Cc1nc(F)c2c(-c3ccc(F)cc3C(=O)N3CCOC[C@H]3C)cc(C3CN([C@H](CCCN4CC5CC(C4)N5C)C(C)C)C3)cn12 [Example 349]	4	16.5		
CCN(C(=O)c1cc(F)ccc1-c1cc(C2CN([C@H](CCCN3CCC(S(C)(=O)=O)CC3)C(C)C)C2)cn2c(C)ncc12)C(C)C [Example 404]	2.3	8.1		
CCN(C(=O)c1cc(F)ccc1-c1cc(C2CN([C@H](CCCN3CCN(CC(=O)N(C)C)CC3)C(C)C)C2)cn2c(C)ncc12)C(C)C [Example 473]	1.1	16		
CCN(C(=O)c1cc(F)ccc1-c1cc(C2CN([C@H](CCCN3CCN[C@H](COC)C3)C(C)C)C2)cn2c(C)ncc12)C(C)C [Example 503]	1	8.5		
CCC(=O)NC1CCN(CCC[C@H](C(C)C)N2CC(c3cc(-c4ccc(F)cc4C(=O)N(CC)C(C)C)c4cnc(C)n4c3)C2)CC1 [Example 425]	2.7	9.9		
CCN(C(=O)c1cc(F)ccc1-c1cc(C2CN([C@H](CCCN3CCC(NS(=O)(=O)CC)CC3)C(C)C)C2)cc2c1cnn2C)C(C)C [Example 411]	2.7	12		
CCN(C(=O)c1cc(F)ccc1-c1cc(C2CN([C@H](CN3CCN(C(CO)CO)CC3)C(C)C)C2)cc2c1cnn2C)C(C)C [Example 419]	8.1	85		
CCN(C(=O)c1cc(F)ccc1-c1cc(C2CN([C@H](CCCN3CCN[C@@H](COC)C3)C(C)C)C2)cn2c(C)ncc12)C(C)C [Example 502]	0.9	9.8		
CCN(C(=O)c1cc(F)ccc1-c1cc(C2CN([C@H](CN3CCN(C[C@@H](O)CO)CC3)C(C)C)C2)cc2c1cnn2C)C(C)C [Example 434]			8.8	32
CCN(C(=O)c1cc(F)ccc1-c1cc(C2CN([C@H](CCCN3CCC(NC(C)=O)CC3)C(C)C)C2)cc2c1cnn2C)C(C)C [Example 405]	1.6	7.2		
Cc1nc(F)c2c(-c3ccc(F)cc3C(=O)N3CCOC[C@H]3C)cc(C3CN(C(CC[C@H]4COCCN4)C(C)C)C3)cn12 (stereo partly drawn) [Example 373, (3R)-4-{5-fluoro-2-[1-fluoro-3-methyl-6-(1-{4-methyl-1-[(3S)-morpholin-3-yl]pentan-3-yl}azacyclobutan-3-yl)imidazo[1,5-a]pyridin-8-yl]benzoyl}-3-methylmorpholine]	6.4	6		
Cc1ncc2c(-c3ccc(F)cc3C(=O)N(C)C(C)C)cc(C3CN([C@H](CCCN4CCN(CCO)CC4)C(C)C)C3)cn12 [Example 448-2]	2.2			13
CCN(C(=O)c1cc(F)ccc1-c1cc(C2CN([C@H](CCCN3CCN(CCOC)CC3)C(C)C)C2)cn2c(C)ncc12)C(C)C [Example 497]	0.9	41		
CCN(C(=O)c1cc(F)ccc1-c1cc(C2CN([C@H](CCCN3CCN(C)[C@H](COC)C3)C(C)C)C2)cn2c(C)ncc12)C(C)C [Example 509]	1.1	7.2		

The next lines start with results.

IC50 (Menin-MLL; [3]) [nM]	IC50 ([1]; 168 h) [nM]	Structure (SMILES)	IC50 (Menin-MLL; [2]) [nM]	IC50 ([1]; MOLM-13, 168 h) [nM]
1	9.9	COC[C@@H]1CN(CCC[C@H](C(C)C)N2CC(c3cc(-c4ccc(F)cc4C(=O)N(C(C)C)C(C)C)c4cnc(C)n4c3)C2)CCN1 [Example 505-2]		
10.6	69	CCN(C(=O)c1cc(F)ccc1-c1cc(C2CN([C@H](CN3CCN(CCO)CC3)C(C)C)C2)cc2c1cnn2C)C(C)C [Example 416-2, N-ethyl-5-fluoro-2-(6-{1-[(2S)-1-[4-(2-hydroxyethyl)piperazin-1-yl]-3-methylbutan-2-yl]azacyclobutan-3-yl}-1-methyl-1H-indazol-4-yl)-N-(isopropyl)benzamide]		
1.1	10	Cc1cncc2c(-c3ccc(F)cc3C(=O)N(C)C(C)C)cc(CC3CN([C@H](CCCN4CCN(CCO)CC4)C(C)C)C3)n12 [Example 477-1, 5-fluoro-2-[6-({1-[(3R)-6-[4-(2-hydroxylethyl)piperazin-1-yl]-2-methylhexan-3-yl]azacyclobutan-3-yl}methyl)-4-methylpyrrolo[1,2-a]pyrazin-8-yl]-N-methyl-N-(isopropyl)benzamide]		
1.2	13	COC[C@H]1CN(CCC[C@H](C(C)C)N2CC(c3cc(-c4ccc(F)cc4C(=O)N(C(C)C)C(C)C)c4cnc(C)n4c3)C2)CCN1 [Example 504-2, 5-fluoro-2-(6-{1-[(3R)-6-[(3R)-3-(methoxymethyl)piperazin-1-yl]-2-methylhexan-3-yl]azacyclobutan-3-yl}-3-methylimidazo[1,5-a]pyridin-8-yl)-N,N-di(isopropyl)benzamide]		
1.9	4.7	Cc1ncc2c(-c3ccc(F)cc3C(=O)N(CC(F)F)C(C)C)cc(C3CN([C@H](CCCN4CCN(CCO)CC4)C(C)C)C3)cn12 [Example 459-1, N-(2,2-difluoroethyl)-5-fluoro-2-(6-{1-[(3R)-6-[4-(2-hydroxylethyl)piperazin-1-yl]-2-methylhexan-3-yl]azacyclobutan-3-yl}-3-methyl-imidazo[1,5-a]pyridin-8-yl)-N-(isopropyl)benzamide]		

Source: patent publication EP4782453A1 (Beyang Therapeutics Co., Ltd., priority 2023, dated 2025)
